Laboratory results from PMC11053944, “FRET Assays for the Identification of C. albicans HSP90-Sba1 and Human HSP90α-p23 Binding Inhibitors” (Pharmaceuticals, 2024).
“Also recorded” adds a separate entry of the source. Read-outs that look alike come from different tables or passages of the source.

Assays:
[1] = molecular target: T1, C. albicans HSP90-mNeonGreen–Sba1-mScarlet-I binding (Candida albicans, UniProt P46598, E36A); conditions: 20 µM added; 1 µM HSP90-mNeonGreen, 2 µM Sba1-mScarlet-I, 5 mM ATP
T1 construct: made in house; host or cells: E. coli BL21(DE3)
Protocol: (§1) In this investigation, 1 µM HSP90-mNeonGreen was incubated with 2 µM Sba1-mScarlet-I in reaction buffer containing 5 mM ATP either alone (UC) or with the addition of 20 µM Sba1. As a negative control, samples containing 20 µM bovine serum albumin (BSA) were used.
(§2) FRET experiments were carried out in 384-well microtiter plates (Art. No. 3766 Corning, NY, USA, or Art. No. 781906, Greiner Bio-One GmbH, Frickenhausen, Germany) containing a final volume of 20 µL and measured with a microplate reader Infinite M200Pro (Tecan, Männedorf, Switzerland). The fluorescence was measured in three channels: excitation (ex.): 488 nm/emission (em.): 525 nm (mNeonGreen fluorescence), ex.: 561 nm/em.: 610 nm (mScarlet-I fluorescence) and the FRET channel ex.: 488 nm/em.: 610 nm. The excitation and emission bandwidths were set to 9 and 20 nm, respectively. Experiments for the determination of the equilibrium dissociation constants were performed with a filter-based microplate reader Infinite F200Pro (Tecan, Männedorf, Switzerland). The fluorescence was measured in three channels using the following filters: ex.: 485 ± 20 nm/em.: 535 ± 20 nm (mNeonGreen channel), ex.: 535 ± 20 nm/em.: 612 ± 10 nm (mScarlet-I channel) and the FRET channel ex.: 485 ± 20 nm/em.: 612 ± 10 nm. FRET emission (EmFRET) was calculated according to Song et al. 2011 [81]:(1) EmFRET=FLDA−x×FLDD−(y×FLAA) where FLDA is the fluorescence signal of the FRET channel and FLDD and FLAA are fluorescence signals from the mNeonGreen and mScarlet-I channels, respectively. The correction factors x and y were calculated as follows:(2) x=FLDA/FLDD for samples containing only the donor fluorophore or fluorescent fusion proteins with mNeonGreen and (3) y=FLDA/FLAA for samples containing only the acceptor fluorophore or fluorescent fusion proteins with mScarlet-I in the same concentration as samples containing both the donor and acceptor.
All experiments were carried out in reaction buffer (40 mM HEPES/KOH pH 7.5, 20 mM KCl, 5 mM MgCl2, 20 mM Na2MoO4, Triton-X 100 0.1%). HEPES and KCl were purchased from AppliChem, Darmstadt, Germany. […]

[2] = molecular target: T2, human HSP90α-mNeonGreen–p23-mScarlet-I binding (Homo sapiens, UniProt P07900, E47A); assay: FRET characterization of model inhibitors and ATP on human HSP90α-p23 binding; conditions: 20 µM added; 1 µM HSP90α-mNeonGreen, 2 µM p23-mScarlet-I, 5 mM ATP
T2 construct: made in house; host or cells: E. coli Rosetta2(DE3) pLysS
Protocol: as §1, §2
All experiments were carried out in reaction buffer (40 mM HEPES/KOH pH 7.5, 20 mM KCl, 5 mM MgCl2, 20 mM Na2MoO4, Triton-X 100 0.1%). HEPES and KCl were purchased from AppliChem, Darmstadt, Germany. KOH and MgCl2 were obtained from VWR Chemicals, Darmstadt, Germany. Na2MoO4 was from Merck, Darmstadt, Germany. Triton-X 100 was purchased from Serva, Heidelberg, Germany.
For C. albicans Sba1 competition experiments for HSP90-mNeonGreen–Sba1-mScarlet-I binding, 1 µM HSP90-mNeonGreen and 1 µM Sba1-mScarlet-I were incubated with varying concentrations of Sba1 in a range of 0–25,000 nM (lowest non-zero concentration 12 nM) in reaction buffer containing 5 mM ATP. The experiment was performed twice in nonaplicates. For human p23 competition experiments for HSP90α-mNeonGreen–p23-mScarlet-I binding, 1 µM HSP90α-mNeonGreen and 1 µM p23-mScarlet-I were incubated with varying concentrations of p23 in a range of 0–50 000 nM (lowest non-zero concentration 23 nM) in reaction buffer containing 5 mM ATP. The experiment was performed twice in hexaplicates. […] The experiment was performed thrice in triplicates. […] The IC50,rel values were calculated using the equation log (inhibitor) vs. response-variable slope (four parameters) in GraphPad Prism 5. Ki values for inhibition of HSP90-mNeonGreen–Sba1-mScarlet-I/p23-mScarlet-I binding by non-labeled Sba1/p23 were calculated with One Site—Fit Ki in GraphPad Prism 5. […] The EC50,rel values were calculated using the log (agonist) vs. response-variable slope (four parameters) equation in GraphPad Prism 5.

HSP90 - Sba1/p23 binding = conditions: according to literature, cited from earlier work
[3] = molecular target: T3, C. albicans HSP90–Sba1 binding (Candida albicans, UniProt P46598); assay: FRET inhibitor screening assay, C. albicans HSP90-Sba1 binding; conditions: 10 or 100 µM (Sba1 20 µM), triplicates, 3 mM ATP, 1% DMSO, 15 min 30 °C
T3 construct: made in house; host or cells: E. coli BL21(DE3)
Excerpt: We used the Z′ factor (Z′) to optimize the FRET assays for screening purposes. Z′ represents a simple statistical parameter for the quality assessment and optimization of HTS assays and screening assays in general. It is a measure that determines the degree of signal separation between binding and non-binding data sets. Calculation of the Z′ factor is based on the standard deviation of the individual data sets as well as their general signal separation. Values ≥ 0.5 can be classified as excellent for screening purposes. […] When the fluorescent fusion proteins of HSP90 and co-chaperones bind to each other, FRET occurs between donor and acceptor fluorophores, and the sensitized emission (EmFRET) signal increases. Consequently, the fluorescence intensity of the donor decreases (FLDD). […] To obtain an informative Z′ value, we calculated it based on at least three independent experiments amounting to 144 samples for both binding and non-binding control data sets (Figure 4B,E). […] We defined the ‘hit threshold’ as a decrease in readout signal of more than 3 standard deviations (SDs) from the mean signal of the binding control. This constitutes a common threshold for hit identification in HTS campaigns.
as §2
For screening for the identification of ATP-competitive C. albicans HSP90 and HSP90-Sba1 binding inhibitors, 10 µL of HSP90-mNeonGreen ([…]) in HEPES buffer (40 mM HEPES/KOH pH 7.5, 20 mM KCl) was mixed with 10 µL of 200 µM compound solution in 2x reaction buffer (40 mM HEPES/KOH pH 7.5, 20 mM KCl, 10 mM MgCl2, 40 mM Na2MoO4, Triton-X 100 0.2%), 6 mM ATP, 2% DMSO, resulting […] Samples for binding control (3 mM ATP, final concentration) and non-binding control (no ATP) were prepared in the same manner without compounds. The samples were incubated for 15 min at 30 °C prior to measurement.

human HSP90α–p23 binding = molecular target: T4, human HSP90α–p23 binding (Homo sapiens, UniProt P07900); assay: FRET inhibitor screening assay, human HSP90α-p23 binding; conditions: 10 or 100 µM, triplicates, 3 mM ATP, 1% DMSO, 15 min 37 °C
T4 construct: made in house; host or cells: E. coli Rosetta2(DE3) pLysS
Excerpt: We used the Z′ factor (Z′) to optimize the FRET assays for screening purposes. Z′ represents a simple statistical parameter for the quality assessment and optimization of HTS assays and screening assays in general. It is a measure that determines the degree of signal separation between binding and non-binding data sets. Calculation of the Z′ factor is based on the standard deviation of the individual data sets as well as their general signal separation. Values ≥ 0.5 can be classified as excellent for screening purposes. […] When the fluorescent fusion proteins of HSP90 and co-chaperones bind to each other, FRET occurs between donor and acceptor fluorophores, and the sensitized emission (EmFRET) signal increases. Consequently, the fluorescence intensity of the donor decreases (FLDD). […] We defined the ‘hit threshold’ as a decrease in readout signal of more than 3 standard deviations (SDs) from the mean signal of the binding control. This constitutes a common threshold for hit identification in HTS campaigns.
The excitation and emission bandwidths were set to 9 and 20 nm, respectively. Experiments for the determination of the equilibrium dissociation constants were performed with a filter-based microplate reader Infinite F200Pro (Tecan, Männedorf, Switzerland). […] The correction factors x and y were calculated as follows:(2) x=FLDA/FLDD for samples containing only the donor fluorophore or fluorescent fusion proteins with mNeonGreen and (3) y=FLDA/FLAA for samples containing only the acceptor fluorophore or fluorescent fusion proteins with mScarlet-I in the same concentration as samples containing both the donor and acceptor.
For screening for the identification of ATP-competitive C. albicans HSP90 and HSP90-Sba1 binding inhibitors, 10 µL of HSP90-mNeonGreen (2 µM) and Sba1-mScarlet-I (4 µM) in HEPES buffer (40 mM HEPES/KOH pH 7.5, 20 mM KCl) was mixed with 10 µL of 200 µM compound solution in 2x reaction buffer (40 mM HEPES/KOH pH 7.5, 20 mM KCl, 10 mM MgCl2, 40 mM Na2MoO4, Triton-X 100 0.2%), 6 mM ATP, 2% DMSO, resulting ultimately in constant HSP90-mNeonGreen concentrations of 1 µM and Sba1-mScarlet-I 2 µM in reaction buffer. Samples for binding control (3 mM ATP, final concentration) and non-binding control (no ATP) were prepared in the same manner without compounds. The samples were incubated for 15 min at 30 °C prior to measurement. The assay for the human HSP90α–p23 binding inhibitor identification was performed analogously, with the exception that samples were incubated for 15 min at 37 °C prior to measurement. Since binding samples show both a high EmFRET as well as a reduction in donor emission (FLDD), we calculated the quotient (EmFRET/FLDD) to derive an improved signal separation and robustness. The nucleoside-mimetics library was obtained from Enamine (catalog No. NML-320-X-20, Enamine Ltd., Kyiv, Ukraine). Z′ and Z factors were calculated based on Zhang et al..

T3 sequence (P46598 whole entry): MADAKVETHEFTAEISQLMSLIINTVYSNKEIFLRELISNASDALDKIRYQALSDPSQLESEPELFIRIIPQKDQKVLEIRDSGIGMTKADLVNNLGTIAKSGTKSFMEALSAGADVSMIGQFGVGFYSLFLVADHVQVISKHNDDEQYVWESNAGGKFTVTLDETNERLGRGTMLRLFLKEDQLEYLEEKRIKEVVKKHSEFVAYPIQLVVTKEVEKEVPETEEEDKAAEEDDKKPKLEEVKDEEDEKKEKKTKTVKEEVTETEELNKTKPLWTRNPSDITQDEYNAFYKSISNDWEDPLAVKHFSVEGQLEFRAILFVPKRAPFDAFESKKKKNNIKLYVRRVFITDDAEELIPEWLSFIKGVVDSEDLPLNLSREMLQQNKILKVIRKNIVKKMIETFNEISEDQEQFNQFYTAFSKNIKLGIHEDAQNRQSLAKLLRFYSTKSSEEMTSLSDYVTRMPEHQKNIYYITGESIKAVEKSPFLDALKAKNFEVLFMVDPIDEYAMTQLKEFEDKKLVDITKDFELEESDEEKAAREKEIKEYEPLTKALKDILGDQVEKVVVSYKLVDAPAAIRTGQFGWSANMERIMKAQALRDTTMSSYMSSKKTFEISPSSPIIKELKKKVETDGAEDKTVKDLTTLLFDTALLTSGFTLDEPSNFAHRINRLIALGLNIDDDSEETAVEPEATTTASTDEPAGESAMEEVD
T1 sequence (P46598 whole entry, stated change not applied): as the sequence (P46598 whole entry) above

| Compound | effect on FRET emission (EmFRET) versus untreated control [1] | effect on FRET emission (EmFRET) versus untreated control [2] | Influence on p23/Sba1 binding (HSP90 - Sba1/p23 binding) | hit identification (EmFRET/FLDD decrease of more than 3 SDs from binding control mean) [3] | hit identification (EmFRET/FLDD decrease of more than 3 SDs from binding control mean) (human HSP90α–p23 binding) | Influence on p23/Sba1 binding (HSP90 - Sba1/p23 binding; listed as Withaferin A) | hit identification (EmFRET/FLDD decrease of more than 3 SDs from binding control mean) ([3]; listed as luminespib) |
| --- | --- | --- | --- | --- | --- | --- | --- |
| bovine serum albumin [BSA] | did not show a significant influence; also recorded: no significant (n.s.) reduction | did not show a significant influence |  |  |  |  |  |
| CC1=C(O)C(=O)C=C2C1=CC=C1[C@@]2(C)CC[C@@]2(C)[C@@H]3C[C@](C)(C(=O)O)CC[C@]3(C)CC[C@]12C [celastrol] |  |  | No and not influence | show no influence | show no influence |  |  |
| COc1cc(C2Oc3cc([C@H]4Oc5cc(O)cc(O)c5C(=O)[C@@H]4O)ccc3OC2CO)ccc1O (stereo partly drawn) [silibinin] |  |  |  | do not show an effect; also recorded: show no influence | show no influence |  |  |
| CC1=C(CO)C(=O)O[C@@H]([C@@H](C)[C@H]2CC[C@H]3[C@@H]4C[C@H]5O[C@]56[C@@H](O)C=CC(=O)[C@]6(C)[C@H]4CC[C@]23C)C1 [withaferin A] |  |  | not influence | do not show an effect; also recorded: show no influence | show no influence | No |  |
| CCNC(=O)c1noc(-c2cc(C(C)C)c(O)cc2O)c1-c1ccc(CN2CCOCC2)cc1 [NVP-AUY922, luminespib] |  |  | Yes | reliably identified as hits |  |  | reliably identified as disrupting HSP90-Sba1 binding |
| O=C(O[C@@H]1Cc2c(O)cc(O)cc2O[C@@H]1c1cc(O)c(O)c(O)c1)c1cc(O)c(O)c(O)c1 [EGCG, (−)-Epigallocatechin-3-gallate] |  |  | Yes | pan-assay interfering compound (PAIN) | strong decrease in FRET emission; also recorded: pan-assay interfering compound (PAIN) |  |  |
| C[C@@H]1C[C@H]2O[C@@H]2/C=C\C=C\C(=O)Cc2c(Cl)c(O)cc(O)c2C(=O)O1 [radicicol] |  |  | Yes | reliably identified as disrupting HSP90-Sba1 binding; also recorded: reliably identified as hits |  |  |  |
| COc1cc2c(cc1OC)[C@@H]1C(=O)c3ccc4c(c3O[C@@H]1CO2)C=CC(C)(C)O4 [deguelin] |  |  |  | do not show an effect; also recorded: show no influence | show no influence |  |  |
